In patent US8293738B2, “Indazole inhibitors of kinase” (Abbott Laboratories, priority 2010, dated 2012) one finds IC50 data, which are given here for two compounds.

One experiment has as its target T1, Aurora B (Homo sapiens, UniProt Q96GD4).
T1 construct: Active Aurora B enzyme (recombinant residues 1-344)
In words: Aurora B enzyme assay (time-resolved fluorescence, histone H3 peptide). Type of experiment: biochemical. The following applies: 1 mM ATP, 1 hour. As to the method: To determine Aurora B activity of representative compounds of the invention, Active Aurora B enzyme (recombinant residues 1-344) and INCENP (recombinant GST fusion protein (Upstate)) were incubated in wells of a 384 well plate with biotinylted histone H3 peptide residues 1-21 (Upstate), 1 mM ATP, and various concentrations of inhibitors in a HEPES buffer, pH 7.4 containing MgCl2, sodium othrovanadate, and Triton X-100. After 1 hour, the reaction was stopped with EDTA and anti-phospho-histone H3 Europium Cryptate (Cis-Bio) and SA-APC (Phycolink, Prozyme) were added to detect the phosphopeptide. The amount of phosphorylation was determined by the time-resolved fluorescence ratio of signals at 665 nm and 615 nm. The IC50's were calculated by an exponential fit of the inhibition values with the inhibitor concentrations using Assay Explorer software.

The subject of experiment [1] is H1299 cells (Human Non-Small Cell Lung Carcinoma). In words: Induction of polyploidy in H1299 cells, high content analysis. The experiment is classed as cell-based. The settings on record: NCI-H1299 cells, 48 hours, polyploid = nuclear area >750μ2, read-out: Polyploid HCA IC50. On the procedure:
To determine the induction of polyploidy in H1299 cells (Human Non-Small Cell Lung Carcinoma), NCI-H1299 were seeded (4K/well) into 96-well culture plates (tissue culture grade, black, flat-clear bottom) and incubated overnight to produce cell-to-plate adherance Inhibitors at varying concentrations were added into duplicate wells containing cells and culture media (RPMI 1640, 10% fetal calf serum) and incubated at 37 C for 48 hours. The plates were then washed with PBS and the adherent cells fixed by incubating with 3% formalin for 1 hour. After washing four times with PBS, the cells were then stained with Hoechst and subjected to fluorescent (3601/460e) microscopic high content analysis to determine the effect of inhibitors on nuclear size. Polyploid cells (>4N) were defined as those having nuclear area >750μ2. […]

In experiment [2] the target is T2, KDR (Homo sapiens, UniProt P35968). Nature of the experiment: KDR cell assay. The experiment is classed as cell-based.
Target sequence in this assay (P35968 20-1356, species assumed): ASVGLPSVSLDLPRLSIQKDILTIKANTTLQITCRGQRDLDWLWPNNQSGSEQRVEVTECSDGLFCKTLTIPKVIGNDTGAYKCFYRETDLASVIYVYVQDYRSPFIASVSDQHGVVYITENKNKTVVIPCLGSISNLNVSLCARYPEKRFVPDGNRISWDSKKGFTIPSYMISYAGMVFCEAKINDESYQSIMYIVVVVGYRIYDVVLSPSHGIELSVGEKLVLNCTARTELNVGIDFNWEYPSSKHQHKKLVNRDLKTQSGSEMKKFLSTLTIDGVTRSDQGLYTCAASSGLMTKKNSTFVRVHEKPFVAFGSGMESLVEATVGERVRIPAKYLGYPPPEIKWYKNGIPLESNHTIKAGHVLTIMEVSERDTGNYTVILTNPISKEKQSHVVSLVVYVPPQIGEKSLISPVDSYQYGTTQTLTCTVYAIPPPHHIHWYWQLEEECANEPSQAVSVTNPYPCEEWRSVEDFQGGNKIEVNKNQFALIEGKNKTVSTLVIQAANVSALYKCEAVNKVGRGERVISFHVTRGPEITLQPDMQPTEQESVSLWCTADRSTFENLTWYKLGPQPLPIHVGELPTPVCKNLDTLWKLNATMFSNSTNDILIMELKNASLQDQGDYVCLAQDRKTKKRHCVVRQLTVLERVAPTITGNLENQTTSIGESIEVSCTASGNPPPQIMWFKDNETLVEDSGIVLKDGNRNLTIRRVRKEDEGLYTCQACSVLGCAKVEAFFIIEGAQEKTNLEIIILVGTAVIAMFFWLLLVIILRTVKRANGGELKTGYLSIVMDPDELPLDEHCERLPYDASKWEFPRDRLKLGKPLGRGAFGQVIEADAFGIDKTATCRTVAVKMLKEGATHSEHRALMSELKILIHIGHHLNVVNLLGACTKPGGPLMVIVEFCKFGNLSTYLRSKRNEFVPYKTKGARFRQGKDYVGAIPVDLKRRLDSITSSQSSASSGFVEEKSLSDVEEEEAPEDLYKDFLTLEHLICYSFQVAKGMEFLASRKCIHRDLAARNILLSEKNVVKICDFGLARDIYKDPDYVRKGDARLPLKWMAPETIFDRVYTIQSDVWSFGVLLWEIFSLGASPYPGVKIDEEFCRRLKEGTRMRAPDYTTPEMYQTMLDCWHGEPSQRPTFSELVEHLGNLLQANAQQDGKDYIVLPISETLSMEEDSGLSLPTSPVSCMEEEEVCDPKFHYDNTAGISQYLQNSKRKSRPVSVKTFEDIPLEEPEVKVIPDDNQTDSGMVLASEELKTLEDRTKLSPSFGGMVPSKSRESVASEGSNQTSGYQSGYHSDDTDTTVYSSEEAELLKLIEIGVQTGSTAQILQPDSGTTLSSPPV
In the next experiment the target is T3, Aurora A (Homo sapiens, UniProt O14965).
T3 sequence (O14965 1-403): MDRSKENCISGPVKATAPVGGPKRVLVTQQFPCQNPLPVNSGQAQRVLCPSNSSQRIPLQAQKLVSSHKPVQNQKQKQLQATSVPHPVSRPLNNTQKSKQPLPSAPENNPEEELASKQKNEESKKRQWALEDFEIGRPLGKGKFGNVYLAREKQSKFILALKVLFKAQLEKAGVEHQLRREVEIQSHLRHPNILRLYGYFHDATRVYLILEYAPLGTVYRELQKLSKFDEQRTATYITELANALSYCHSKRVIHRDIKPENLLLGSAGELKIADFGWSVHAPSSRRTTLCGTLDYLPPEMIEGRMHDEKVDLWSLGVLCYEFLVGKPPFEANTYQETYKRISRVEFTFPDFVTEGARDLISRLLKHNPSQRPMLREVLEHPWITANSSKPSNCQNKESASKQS
In words: Aurora A enzyme assay (time-resolved fluorescence, STK substrate-2). The experiment is classed as biochemical. The following applies: 1 mM ATP, 1 hour. On the procedure:
To determine Aurora A and C activity of representative compounds of the invention, Active Aurora A or C enzyme was incubated in wells of a 384 well plate with biotinylated STK substrate-2 (Upstate), 1 mM ATP, and various concentrations of inhibitors in a Hepes buffer, pH 7.4 containing MgCl2, sodium othrovanadate, and Triton X-100. After 1 hour, the reaction was stopped with EDTA and anti-phospho-STK antibody Europium Cryptate (Upstate) and SA-XL665 (Upstate) were added to detect the phosphopeptide. The amount of phosphorylation was determined by the time-resolved fluorescence ratio of signals at 665 nm and 615 nm. The IC50s were calculated by an exponential fit of the inhibition values with the inhibitor concentrations using Assay Explorer software.

The target of experiment [3] is T2, KDR. Nature of the experiment: KDR HTRF in vitro kinase assay. Type of experiment: biochemical. The arrangement: purified enzyme (His6-KDR 789-1354, MW 63 kD). The following applies: 1 mM ATP, 60 minutes. As to the method: To determine the activity of the various kinases, a homogenous time-resolved fluorescence (HTRF) in vitro kinase assay was used. (Mathis, G., HTRF(R) Technology. J Biomol Screen, 1999. 4(6): p. 309-314; Alfred J. Kolb, Paul V. Kaplita, David J. Hayes, Young-Whan Park, Christine Pernell, John S. Major and Gerard Mathis, Drug Discovery Today, 1998, 3, 333-342.)
For example for KDR, 7 ng/well of purified enzyme (His6-KDR 789-1354, MW 63 kD) was mixed with 0.5 μM N-biotinylated substrate (Biotin-Ahx-AEEEYFFLA-amide (SEQ. ID. 1)), various concentrations of inhibitor in reaction buffer (50 mM HEPES, pH 7.1, mM MgCl2, 2 mM MnCl2, 0.1% BSA and 1 mM DTT, […] final volume), ATP (1 mM final conc.) in a black 384-well plate. After 60 minutes incubation at room temperature, the reaction was quenched by addition of a buffered EDTA solution (final approximate concentrations: 30 mM EDTA, 0.1% BSA, 0.1% Triton X-100 and 0.24M KF) and a solution of revelation agents (to give 0.084 ng/well streptavidin-XL-665 (Cis-Bio) and 6.5 ng/well antiphsophotyrosine mAb PT66-K Europium kryptate) was added to the reaction mixture. The quenched reaction was allowed to stand at room temperature for 3 hours and was then read in a time-resolved fluorescence detector (InVision, Perkin-Elmer) at 620 nm and 665 nm sequentially with excitation. The ratio between the signal of 620 nm and 665 nm was used in the calculation of the IC50.
Target sequence in this assay (P35968 789-1354): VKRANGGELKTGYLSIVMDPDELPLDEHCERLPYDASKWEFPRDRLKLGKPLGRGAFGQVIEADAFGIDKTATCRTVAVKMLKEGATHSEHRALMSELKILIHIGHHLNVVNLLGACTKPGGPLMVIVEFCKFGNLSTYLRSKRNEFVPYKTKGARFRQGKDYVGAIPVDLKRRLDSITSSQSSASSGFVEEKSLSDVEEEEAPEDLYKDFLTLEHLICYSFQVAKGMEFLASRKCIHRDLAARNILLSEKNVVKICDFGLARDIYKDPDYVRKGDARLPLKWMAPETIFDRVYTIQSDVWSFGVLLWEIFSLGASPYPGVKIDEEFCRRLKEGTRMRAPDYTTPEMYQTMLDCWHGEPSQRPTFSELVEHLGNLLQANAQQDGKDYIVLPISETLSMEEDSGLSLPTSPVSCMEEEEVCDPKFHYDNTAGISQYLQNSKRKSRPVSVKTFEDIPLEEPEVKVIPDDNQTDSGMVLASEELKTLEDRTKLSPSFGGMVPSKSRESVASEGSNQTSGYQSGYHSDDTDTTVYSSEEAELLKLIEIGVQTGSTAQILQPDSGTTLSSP
For orientation: Time-resolved FRET reads energy transfer from a long-lived donor to a nearby acceptor.

T1 sequence (Q96GD4 whole entry, the tested form may be a part): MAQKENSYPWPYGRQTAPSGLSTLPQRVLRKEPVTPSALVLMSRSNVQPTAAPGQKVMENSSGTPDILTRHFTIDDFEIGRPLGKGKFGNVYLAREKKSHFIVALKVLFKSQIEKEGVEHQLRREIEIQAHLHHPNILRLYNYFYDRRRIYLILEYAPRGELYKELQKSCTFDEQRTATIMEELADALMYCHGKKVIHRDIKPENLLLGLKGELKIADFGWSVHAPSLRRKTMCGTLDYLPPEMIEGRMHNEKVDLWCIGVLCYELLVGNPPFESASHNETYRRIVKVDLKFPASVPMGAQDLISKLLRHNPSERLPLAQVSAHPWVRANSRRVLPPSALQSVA
T1 sequence (Q9NQS7 826-918 partner limits assumed): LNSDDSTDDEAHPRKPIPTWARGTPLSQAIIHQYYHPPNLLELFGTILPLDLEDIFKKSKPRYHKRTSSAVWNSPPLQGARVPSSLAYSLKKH

`O=C(Nc1ccc(-c2ccc3c(-c4cnn(CCN5CCOCC5)c4)n[nH]c3c2)cc1)Nc1cccc(F)c1` [Example 6, N-(3-fluorophenyl)-N′-(4-{3-[1-(2-morpholin-4-ylethyl)-1H-pyrazol-4-yl]-1H-indazol-6-yl}phenyl)urea]: the concentration for half-maximal inhibition (IC50) is 21.2 nM against Aurora B; 18 nM in experiment [1]; 187 nM against KDR [2]; 1000 nM against Aurora A; 86.1 nM on KDR [3].
The corresponding values for `Cc1cccc(NC(=O)Nc2ccc(-c3ccc4c(-c5cnn(CCO)c5)n[nH]c4c3)cc2)c1` [Example 12, N-(4-{3-[1-(2-hydroxyethyl)-1H-pyrazol-4-yl]-1H-indazol-6-yl}phenyl)-N′-(3-methylphenyl)urea] are 44.1 nM, 55 nM, 176 nM, greater than 12500 nM and 60 nM.

Broadly, the IC50 is the concentration that gives 50% inhibition.
